In US4789665A, “Anthracyclines and drugs containing them” (Laboratoires Hoechst S. A., priority 1985, dated 1988):
Converted amounts (≈) assume the structure as drawn. Read-outs that look alike come from different tables or passages of the source.

System: leukemia L 1210 strain cells
Assay: cell proliferation test (colony formation, procedure of HAMBURGER and SALMON), continuous exposure
Format: cell-based
Settings: Mus musculus
Protocol: The experimental protocol was performed according to the procedure of HAMBURGER and SALMON on leukemia L 1210 strain cells. Some modifications were introduced in the procedure of HAMBURGER and SALMON, and in particular:
the conditioned medium was replaced by McCoy5A. The number of cells in a dish was reduced to 5×10^2 cells per dish on account of the high covering efficiency of leukemia L 1210. […]
In addition, parallel experiments were carried out with continuous incubation and with various concentrations of the test substance by mixing the latter with the upper layer before application.
The dishes were kept in an incubator with 5% CO2, 20% O2, at 95% relative humidity for 5 to 7 days at 37° C. After this period, the colonies having a diameter greater than 60 μm were counted with an inverted microscope.
The results were expressed as a percentage of the number of colonies formed from treated L 1210 relative to an untreated control. The coefficient of variation of repeated experiments was less than 15%.

[1] = L1210, L 1210 leukemia cells, continuous incubation, colonies >60 μm counted after 5 to 7 days at 37° C, read-out: IC50 (continuous exposure)
[2] = L1210, read-out: IC50 (continuous exposure)

Row | Structure (SMILES) | IC50 [1] [µg/mL] | IC50 [2] [µg/mL]
1 | COc1cccc2c1C(=O)c1c(O)c3c(c(O)c1C2=O)C[C@@](O)(C(C)=O)C[C@@H]3O[C@H]1C[C@H](N(CC#N)CC#N)[C@H](O)[C@H](C)O1 [3'-N,N-bis(cyanomethyl)daunorubicin] | 0.08 (≈ 0.132 µM) | –
2 | COCCOCCN(CCOCCOC)[C@H]1C[C@H](O[C@H]2C[C@](O)(C(C)=O)Cc3c(O)c4c(c(O)c32)C(=O)c2c(OC)cccc2C4=O)O[C@@H](C)[C@H]1O [3'-N,N-bis[2-(2-methoxyethoxy)ethyl]daunorubicin] | 0.22 (≈ 0.301 µM) | –
3 | CCN(CC)C(=O)CN(CC(=O)N(CC)CC)[C@H]1C[C@H](O[C@H]2C[C@](O)(C(C)=O)Cc3c(O)c4c(c(O)c32)C(=O)c2c(OC)cccc2C4=O)O[C@@H](C)[C@H]1O [3'-N,N-bis[(N,N-diethylcarbamoyl)methyl]daunorubicin] | 0.65 (≈ 0.862 µM) | –
4 | COCCN[C@H]1C[C@H](O[C@H]2C[C@](O)(C(C)=O)Cc3c(O)c4c(c(O)c32)C(=O)c2c(OC)cccc2C4=O)O[C@@H](C)[C@H]1O [3'-N-(2-methoxyethyl)daunorubicin] | 0.01 (≈ 0.0171 µM) | –
5 | COC(=O)CN[C@H]1C[C@H](O[C@H]2C[C@](O)(C(C)=O)Cc3c(O)c4c(c(O)c32)C(=O)c2c(OC)cccc2C4=O)O[C@@H](C)[C@H]1O [3'-N-(carbomethoxymethyl)daunorubicin] | 0.24 (≈ 0.4 µM) | –
6 | COc1cccc2c1C(=O)c1c(O)c3c(c(O)c1C2=O)C[C@@](O)(C(C)=O)C[C@@H]3O[C@H]1C[C@H](NCC#N)[C@H](O)[C@H](C)O1 [3'-N-(cyanomethyl)daunorubicin] | – | 0.0028 (≈ 0.00494 µM)
7 | COCCOCCN[C@H]1C[C@H](O[C@H]2C[C@](O)(C(C)=O)Cc3c(O)c4c(c(O)c32)C(=O)c2c(OC)cccc2C4=O)O[C@@H](C)[C@H]1O [3'-N-[2-(2-methoxyethoxy)ethyl]daunorubicin] | 0.07 (≈ 0.111 µM) | –
8 | CCN(CC)C(=O)CN[C@H]1C[C@H](O[C@H]2C[C@](O)(C(C)=O)Cc3c(O)c4c(c(O)c32)C(=O)c2c(OC)cccc2C4=O)O[C@@H](C)[C@H]1O [3'-N-[(N,N-diethylcarbamoyl)methyl]daunorubicin] | 0.28 (≈ 0.437 µM) | –
9 | COCCN(CC#N)[C@H]1C[C@H](O[C@H]2C[C@](O)(C(C)=O)Cc3c(O)c4c(c(O)c32)C(=O)c2c(OC)cccc2C4=O)O[C@@H](C)[C@H]1O [3'-N-cyanomethyl-3'-N-(2-methoxyethyl)daunorubicin] | – | 0.09 (≈ 0.144 µM)
10 | COc1cccc2c1C(=O)c1c(O)c3c(c(O)c1C2=O)C[C@@](O)(C(C)=O)C[C@@H]3O[C@H]1C[C@H](N)[C@H](O)[C@H](C)O1 [DAUNORUBICIN, daunorubicin, reference compound] | 0.02 (≈ 0.0379 µM) | –
11 | COc1cccc2c1C(=O)c1c(O)c3c(c(O)c1C2=O)C[C@@](O)(C(=O)CO)C[C@@H]3O[C@H]1C[C@H](N)[C@H](O)[C@H](C)O1 [DOXORUBICIN, doxorubicin, reference compound] | 0.02 (≈ 0.0368 µM) | –
